In ChEMBL document CHEMBL3885861, “Open TG-GATES”:

Species: Rattus norvegicus
Experiment: Open TG-GATES - Regimen: Daily Repeat
Assay type: toxicity, organism-based, Sprague-Dawley
Design: regimen Daily Repeat, gender Male, age 6 weeks
Conditions: in vivo, po, 15 mg/kg, route gavage, dose level Low; for APTT / Bas / Eos / Fbg / Hb / Ht / Lym / MCH / MCHC / MCV / Mono / Neu / PT / Plat / RBC / Ret / WBC: tissue Blood; for KIDNEY_L / KIDNEY_R / KIDNEY_TOTAL: tissue Kidney; for LIVER: tissue Liver; for A/G / ALP / ALT / AST / BUN / CRE / Ca / Cl / DBIL / GLC / IP / K / LDH / Na / PL / RALB / TBIL / TC / TG / TP / gamma-GTP: tissue Plasma

Work on `O=c1ccc2ccccc2o1` [COUMARIN] yielded a TERMINAL_BW (72 h, time 3 day) of 198.3 g, an APTT (72 h, time 3 day) of 15.1 s and a Bas (72 h, time 3 day) of 0%. The Eos (72 h, time 3 day) was 1%, the Fbg (72 h, time 3 day) was 192.4 mg/dL and the Hb (72 h, time 3 day) was 13.1 g/dL. It also gave a Ht (72 h, time 3 day) of 39.5%, a Lym (72 h, time 3 day) of 72.2% and an MCH (72 h, time 3 day) of 21.5 pg. For the same compound, the MCHC (72 h, time 3 day) was 33.2%, the MCV (72 h, time 3 day) was 64.8 fL and the Mono (72 h, time 3 day) was 9.8%. For the same compound, the Neu (72 h, time 3 day) was 17%, the PT (72 h, time 3 day) was 11.6 s and the Plat (72 h, time 3 day) was 110.7 x10_4/uL. For the same compound, the RBC (72 h, time 3 day) was 608.6 x10_4/ul, the Ret (72 h, time 3 day) was 7.9% and the WBC (72 h, time 3 day) was 108.8 x10_2/uL. It also gave a KIDNEY_L (72 h, time 3 day) of 0.9 g, a KIDNEY_R (72 h, time 3 day) of 0.9 g and a KIDNEY_TOTAL (72 h, time 3 day) of 1.8 g. The LIVER (72 h, time 3 day) was 10.1 g, the A/G (72 h, time 3 day) was 2.1 and the ALP (72 h, time 3 day) was 921.6 IU/L. It also gave an ALT (72 h, time 3 day) of 40.6 IU/L, an AST (72 h, time 3 day) of 68 IU/L and a BUN (72 h, time 3 day) of 14.8 mg/dL. The CRE (72 h, time 3 day) was 0.5 mg/dL, the Ca (72 h, time 3 day) was 10.8 mg/dL and the Cl (72 h, time 3 day) was 104.6 meq/L. The DBIL (72 h, time 3 day) was 0.02 mg/dL, the GLC (72 h, time 3 day) was 190 mg/dL and the IP (72 h, time 3 day) was 8.3 mg/dL. The K (72 h, time 3 day) was 4.9 meq/L, the LDH (72 h, time 3 day) was 78.2 IU/L and the Na (72 h, time 3 day) was 138.8 meq/L. The PL (72 h, time 3 day) was 150 mg/dL, the RALB (72 h, time 3 day) was 3.7 g/dL and the TBIL (72 h, time 3 day) was 0.3 mg/dL. It also gave a TC (72 h, time 3 day) of 89.2 mg/dL, a TG (72 h, time 3 day) of 68 mg/dL and a TP (72 h, time 3 day) of 5.5 g/dL. For the same compound, the gamma-GTP (72 h, time 3 day) was 1.6 IU/L, the TERMINAL_BW ([…], time 7 day) was 228.4 g and the TERMINAL_BW ([…], time 14 day) was 282.9 g. The TERMINAL_BW ([…], time 28 day) was 347.7 g, the APTT ([…], time 7 day) was 16 s and the Bas ([…], time 7 day) was 0%. For the same compound, the Eos ([…], time 7 day) was 1%, the Fbg ([…], time 7 day) was 223.8 mg/dL and the Hb ([…], time 7 day) was 13.9 g/dL. The Ht ([…], time 7 day) was 42%, the Lym ([…], time 7 day) was 81.6% and the MCH ([…], time 7 day) was 21.3 pg. The MCHC ([…], time 7 day) was 33%, the MCV ([…], time 7 day) was 64.4 fL and the Mono ([…], time 7 day) was 5.2%. The Neu ([…], time 7 day) was 12.4%, the PT ([…], time 7 day) was 11.5 s and the Plat ([…], time 7 day) was 119 x10_4/uL. It also gave an RBC ([…], time 7 day) of 653.2 x10_4/ul, a Ret ([…], time 7 day) of 6.1% and a WBC ([…], time 7 day) of 129.6 x10_2/uL. It also gave an APTT ([…], time 14 day) of 17.1 s, a Bas ([…], time 14 day) of 0% and an Eos ([…], time 14 day) of 0.6%. It also gave a Fbg ([…], time 14 day) of 225.6 mg/dL, a Hb ([…], time 14 day) of 13.9 g/dL and a Ht ([…], time 14 day) of 41.8%. The Lym ([…], time 14 day) was 82.6%, the MCH ([…], time 14 day) was 20.4 pg and the MCHC ([…], time 14 day) was 33.3%. The MCV ([…], time 14 day) was 61.2 fL, the Mono ([…], time 14 day) was 4.8% and the Neu ([…], time 14 day) was 12%. For the same compound, the PT ([…], time 14 day) was 11.4 s, the Plat ([…], time 14 day) was 118.1 x10_4/uL and the RBC ([…], time 14 day) was 683 x10_4/ul. For the same compound, the Ret ([…], time 14 day) was 4.8%, the WBC ([…], time 14 day) was 144.2 x10_2/uL and the APTT ([…], time 28 day) was 18.3 s. For the same compound, the Bas ([…], time 28 day) was 0%, the Eos ([…], time 28 day) was 1.2% and the Fbg ([…], time 28 day) was 217.2 mg/dL. It also gave a Hb ([…], time 28 day) of 14.8 g/dL, a Ht ([…], time 28 day) of 44% and a Lym ([…], time 28 day) of 80%. For the same compound, the MCH ([…], time 28 day) was 19.9 pg, the MCHC ([…], time 28 day) was 33.5% and the MCV ([…], time 28 day) was 59.3 fL. The Mono ([…], time 28 day) was 8%, the Neu ([…], time 28 day) was 11% and the PT ([…], time 28 day) was 11.8 s. The Plat ([…], time 28 day) was 108.5 x10_4/uL, the RBC ([…], time 28 day) was 743.6 x10_4/ul and the Ret ([…], time 28 day) was 3%. The WBC ([…], time 28 day) was 134.3 x10_2/uL, the KIDNEY_L ([…], time 7 day) was 1 g and the KIDNEY_R ([…], time 7 day) was 1 g. The KIDNEY_TOTAL ([…], time 7 day) was 2 g, the KIDNEY_L ([…], time 14 day) was 1.1 g and the KIDNEY_R ([…], time 14 day) was 1.1 g. The KIDNEY_TOTAL ([…], time 14 day) was 2.3 g, the KIDNEY_L ([…], time 28 day) was 1.3 g and the KIDNEY_R ([…], time 28 day) was 1.3 g. For the same compound, the KIDNEY_TOTAL ([…], time 28 day) was 2.6 g, the LIVER ([…], time 7 day) was 11.6 g and the LIVER ([…], time 14 day) was 14.2 g. The LIVER ([…], time 28 day) was 16.4 g, the A/G ([…], time 7 day) was 2.1 and the ALP ([…], time 7 day) was 1042 IU/L. For the same compound, the ALT ([…], time 7 day) was 34.2 IU/L, the AST ([…], time 7 day) was 53.8 IU/L and the BUN ([…], time 7 day) was 16 mg/dL. For the same compound, the CRE ([…], time 7 day) was 0.5 mg/dL, the Ca ([…], time 7 day) was 10.9 mg/dL and the Cl ([…], time 7 day) was 104.8 meq/L. It also gave a DBIL ([…], time 7 day) of 0.022 mg/dL, a GLC ([…], time 7 day) of 192 mg/dL and an IP ([…], time 7 day) of 7.4 mg/dL. It also gave a K ([…], time 7 day) of 5 meq/L, an LDH ([…], time 7 day) of 85.4 IU/L and a Na ([…], time 7 day) of 138.4 meq/L. For the same compound, the PL ([…], time 7 day) was 178.6 mg/dL, the RALB ([…], time 7 day) was 4 g/dL and the TBIL ([…], time 7 day) was 0.3 mg/dL. For the same compound, the TC ([…], time 7 day) was 97.6 mg/dL, the TG ([…], time 7 day) was 96 mg/dL and the TP ([…], time 7 day) was 6 g/dL. The gamma-GTP ([…], time 7 day) was 2 IU/L, the A/G ([…], time 14 day) was 1.9 and the ALP ([…], time 14 day) was 761.8 IU/L. The ALT ([…], time 14 day) was 40 IU/L, the AST ([…], time 14 day) was 59 IU/L and the BUN ([…], time 14 day) was 18.2 mg/dL. For the same compound, the CRE ([…], time 14 day) was 0.5 mg/dL, the Ca ([…], time 14 day) was 10.9 mg/dL and the Cl ([…], time 14 day) was 106 meq/L. For the same compound, the DBIL ([…], time 14 day) was 0.042 mg/dL, the GLC ([…], time 14 day) was 194.6 mg/dL and the IP ([…], time 14 day) was 6.6 mg/dL. For the same compound, the K ([…], time 14 day) was 5.1 meq/L, the LDH ([…], time 14 day) was 87 IU/L and the Na ([…], time 14 day) was 138.2 meq/L. The PL ([…], time 14 day) was 171.2 mg/dL, the RALB ([…], time 14 day) was 4 g/dL and the TBIL ([…], time 14 day) was 0.3 mg/dL. It also gave a TC ([…], time 14 day) of 84.4 mg/dL, a TG ([…], time 14 day) of 116.8 mg/dL and a TP ([…], time 14 day) of 6.1 g/dL. For the same compound, the gamma-GTP ([…], time 14 day) was 1.2 IU/L, the A/G ([…], time 28 day) was 1.7 and the ALP ([…], time 28 day) was 681.4 IU/L. The ALT ([…], time 28 day) was 33.2 IU/L, the AST ([…], time 28 day) was 52.4 IU/L and the BUN ([…], time 28 day) was 19.6 mg/dL. The CRE ([…], time 28 day) was 0.6 mg/dL, the Ca ([…], time 28 day) was 10.8 mg/dL and the Cl ([…], time 28 day) was 107.4 meq/L. The DBIL ([…], time 28 day) was 0.012 mg/dL, the GLC ([…], time 28 day) was 187.6 mg/dL and the IP ([…], time 28 day) was 6.7 mg/dL. The K ([…], time 28 day) was 4.3 meq/L, the LDH ([…], time 28 day) was 46.4 IU/L and the Na ([…], time 28 day) was 139.4 meq/L. For the same compound, the PL ([…], time 28 day) was 145.6 mg/dL, the RALB ([…], time 28 day) was 4.2 g/dL and the TBIL ([…], time 28 day) was 0.4 mg/dL. The TC ([…], time 28 day) was 70.8 mg/dL, the TG ([…], time 28 day) was 123.8 mg/dL and the TP ([…], time 28 day) was 6.6 g/dL. The gamma-GTP ([…], time 28 day) was 1 IU/L.
